Measured values as given in patent US7772245B2, “Inhibitors of histone deacetylase” (Miikana Therapeutics, Inc., priority 2005, dated 2010).

Tests used:
HDAC = test: In vitro fluorescent histone deacetylase assay (Biomol HDAC fluorescent activity kit, HeLa cell nuclear extract); format: biochemical; settings: 100 μM compound; HeLa cell nuclear extract as source of HDAC activity; 50 μM substrate, 10 min at room temperature
In short: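 HeLa nuclear extract as HDAC source with fluorogenic substrate at 50 μM final, reacting 10 min at room temperature before stop. Compounds serially diluted in assay buffer, final DMSO ≤2%; fluorescence read at ex 355 nm / em 460 nm.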

HCT116 cells = test: Whole cell cytotoxicity assay: Sulforhodamine B; format: cell-based; settings: Homo sapiens, HCT-116; 100 μM compound; 48 hours incubation with drug; Sulforhodamine B staining; read-out: % Inhibition of HCT116 cell growth @ 100 μM

SMILES	% Inhibition of HDAC @ 100 μM (HDAC)	inhibition at 100 µM (HCT116 cells)
Cc1cccc2c3c([nH]c12)CN(c1ncc(C(=O)NO)cn1)CC3 [Example 61, N-hydroxy-2-(8-methyl-1,3,4,9-tetrahydro-2H-b-carbolin-2-yl)pyrimidine-5-carboxamide]	99.9%	98.2%
O=C(NO)c1cnc(N2CCc3c(n(CCO)c4ccccc34)C2)nc1 [Example 58, N-hydroxy-2-[9-(2-hydroxyethyl)-1,3,4,9-tetrahydro-2H-b-carbolin-2-yl]pyrimidine-5-carboxamide]	97.7%	96.3%
O=C(NO)c1cnc(N2CCc3[nH]c4ccc(-c5cccc(CN(CCO)CCO)c5)cc4c3C2)nc1 [Example 95, N-hydroxy-2-{8-[3-(N,N-di(2-hydroxyethyl)aminomethyl)phenyl]-1,3,4,5-tetrahydro-2H-pyrido[4,3-b]indol-2-yl}pyrimidine-5-carboxamide]	100%	98.2%
C[S+]([O-])c1cccc(-c2ccc3[nH]c4c(c3c2)CN(c2ncc(C(=O)NO)cn2)CC4)c1 (centres unmarked) [Example 79, N-hydroxy-2-{8-[3-(methylsulfinyl)phenyl]-1,3,4,5-tetrahydro-2H-pyrido[4,3-b]indol-2-yl}pyrimidine-5-carboxamide]	100%	95.7%
O=C(NO)c1cnc(N2CCc3c(oc4ccccc34)C2)nc1 [Example 119, 2-(3,4-dihydro[1]benzofuro[2,3-c]pyridin-2(1)-yl)-N-hydroxypyrimidine-5-carboxamide]	99.3%	98.6%
Cc1ccc2c(c1)C1CCN(c3ncc(C(=O)NO)cn3)CC1N2 (centres unmarked) [Example 67, N-hydroxy-2-(6-methyl-1,3,4,4a,9,9a-hexahydro-2H-b-carbolin-2-yl)pyrimidine-5-carboxamide]	99.9%	98.2%
O=C(NO)c1cnc(N2CCc3[nH]c4ccccc4c(=O)c3C2)nc1 [Example 122, N-hydroxy-2-(10-oxo-3,4,5,10-tetrahydrobenzo[b]-1,6-naphthyridin-2(1H)-yl)pyrimidine-5-carboxamide]	100%	44.4%
CC(C)c1ccc2[nH]c3c(c2c1)CN(c1ncc(C(=O)NO)cn1)CC3 [Example 38, N-hydroxy-2-{8-isopropyl-1,3,4,5-tetrahydro-2H-pyrido[4,3-b]indol-2-yl}pyrimidine-5-carboxamide]	99.8%	99.5%
COc1cc2c(cc1OC)CN(c1ccc(C(=O)NO)cn1)CC2 [Example 5, 6-(6,7-dimethoxy-3,4-dihydroisoquinolin-2(1H)-yl)-N-hydroxynicotinamide]	99.7%	99.9%
COc1ccc(-c2ccc3[nH]c4c(c3c2)CN(c2ncc(C(=O)NO)cn2)CC4)cc1 [Example 40, N-hydroxy-2-{8-[4-methoxyphenyl]-1,3,4,5-tetrahydro-2H-pyrido[4,3-b]indol-2-yl}pyrimidine-5-carboxamide]	99.8%	98.3%
O=C(NO)c1cnc(N2CCc3[nH]c4cc(-c5ccccc5)ccc4c3C2)nc1 [Example 120, N-hydroxy-2-{7-phenyl-1,3,4,5-tetrahydro-2H-pyrido[4,3-b]indol-2-yl}pyrimidine-5-carboxamide]	99.6%	97.6%
Nc1ccc2[nH]c3c(c2c1)CN(c1ncc(C(=O)NO)cn1)CC3 [Example 76, N-hydroxy-2-(8-amino-1,3,4,5-tetrahydro-2H-pyrido[4,3-b]indol-2-yl)pyrimidine-5-carboxamide]	100%	98.9%
CC(C)(C)c1ccc2[nH]c3c(c2c1)CN(c1ncc(C(=O)NO)cn1)CC3 [Example 39, N-hydroxy-2-{8-tert-butyl-1,3,4,5-tetrahydro-2H-pyrido[4,3-b]indol-2-yl}pyrimidine-5-carboxamide]	98.8%	99.4%
COc1cc2c(cc1OC)CN(c1ncc(C(=O)NO)cn1)CC2 [Example 11, 2-(6,7-dimethoxy-3,4-dihydroisoquinolin-2(1H)-yl)-N-hydroxypyrimidine-5-carboxamide]	99.8%	99%
O=C(NO)c1cnc(N2CCc3c([nH]c4ccccc34)C2)nc1 [Example 9, N-hydroxy-2-(1,3,4,9-tetrahydro-2H-b-carbolin-2-yl)pyrimidine-5-carboxamide]	99.9%	99.3%
CN1CCN(Cc2cccc(-c3ccc4[nH]c5c(c4c3)CCN(c3ncc(C(=O)NO)cn3)CC5)c2)CC1 [Example 117, N-hydroxy-2-(9-[3-((4-methylpiperazin-1-yl)methy)phenyl]-1,4,5,6-tetrahydroazepino[4,5-b]indol-3(2H)-1-yl)pyrimidine-5-carboxamide]	99.8%	98.6%

SMILES	% Inhibition of HDAC @ 100 μM (HDAC)	inhibition at 100 µM (HCT116 cells)
Cn1c2c(c3ccccc31)CCN(c1ncc(C(=O)NO)cn1)C2 [Example 27, N-hydroxy-2-(9-methyl-1,3,4,9-tetrahydro-2H-b-carbolin-2-yl)pyrimidine-5-carboxamide]	98.3%	98.9%
O=C(NO)c1cnc(N2CCc3[nH]c4ccc(-c5cccc(CN6CCSCC6)c5)cc4c3C2)nc1 [Example 94, N-hydroxy-2-{8-[3-(thiomorpholin-4-ylmethyl)phenyl]-1,3,4,5-tetrahydro-2H-pyrido[4,3-b]indol-2-yl}pyrimidine-5-carboxamide]	99.7%	98.5%
CN1CCN(Cc2cccc(-c3ccc4[nH]c5c(c4c3)CCN(c3ncc(C(=O)NO)cn3)C5)c2)CC1 [Example 71, N-hydroxy-2-{6-[3-((4-methylpiperazin-1-yl)methyl)phenyl]-1,3,4,9-tetrahydro-2H-b-carbolin-2-yl}pyrimidine-5-carboxamide]	99.9%	98.6%
Cc1ccc2[nH]c3c(c2c1)CCN(c1ncc(C(=O)NO)cn1)C3 [Example 68, N-hydroxy-2-(6-methyl-1,3,4,9-tetrahydro-2H-b-carbolin-2-yl)pyrimidine-5-carboxamide]	99.9%	98.9%
O=C(NO)c1cnc(N2CCc3c(n(S(=O)(=O)c4ccccc4)c4ccccc34)C2)nc1 [Example 26, N-hydroxy-2-[9-(phenylsulfonyl)-1,3,4,9-tetrahydro-2H-b-carbolin-2-yl]pyrimidine-5-carboxamide]	98.9%	99%
O=C(NO)c1cnc(N2CCc3c(n(Cc4ccccc4)c4ccccc34)C2)nc1 [Example 28, N-hydroxy-2-(9-benzyl-1,3,4,9-tetrahydro-2H-b-carbolin-2-yl)pyrimidine-5-carboxamide]	95.2%	98.7%
CC(=O)n1c2c(c3cc(C)ccc31)CN(c1ncc(C(=O)NO)cn1)CC2 [Example 74, N-hydroxy-2-{5-acetyl-8-methyl-1,3,4,5-tetrahydro-2H-pyrido[4,3-b]indol-2-yl}pyrimidine-5-carboxamide]	99.1%	93.6%
O=C(NO)c1cnc(N2CCc3c(n(CCN4CCCC4)c4ccccc34)C2)nc1 [Example 23, N-hydroxy-2-{9-[2-pyrrolidin-1-ylethyl]-1,3,4,9-tetrahydro-2H-b-carbolin-2-yl}pyrimidine-5-carboxamide]	99.3%	98.1%
CS(=O)(=O)N1CCN(Cc2cccc(-c3ccc4[nH]c5c(c4c3)CN(c3ncc(C(=O)NO)cn3)CC5)c2)CC1 [Example 100, N-hydroxy-2-{8-[3-((4-(methylsulfonyl)piperazin-1-yl)methyl)phenyl]-1,3,4,5-tetrahydro-2H-pyrido[4,3-b]indol-2-yl}pyrimidine-5-carboxamide]	100%	96.6%
Cc1ccc2[nH]c3c(c2c1)CN(c1ncc(C(=O)NO)cn1)CC3 [Example 13, N-hydroxy-2-(8-methyl-1,3,4,5-tetrahydro-2H-pyrido[4,3-b]indol-2-yl)pyrimidine-5-carboxamide]	99.9%	99.1%
O=C(NO)c1cnc(N2CCc3c(n(CN4CCCC4)c4ccccc34)C2)nc1 [Example 30, N-hydroxy-2-{9-[2-pyrrolidin-1-ylmethyl]-1,3,4,9-tetrahydro-2H-b-carbolin-2-yl}pyrimidine-5-carboxamide]	98.1%	96.8%
O=C(NO)c1cnc(N2CCc3[nH]c4ccc(-c5ccc(CO)cc5)cc4c3C2)nc1 [Example 107, N-hydroxy-2-{8-[4-(hydroxymethyl)phenyl]-1,3,4,5-tetrahydro-2H-pyrido[4,3-b]indol-2-yl}pyrimidine-5-carboxamide]	99.9%	92.7%
CN1CCN(Cc2ccccc2-c2ccc3[nH]c4c(c3c2)CCN(c2ncc(C(=O)NO)cn2)C4)CC1 [Example 73, N-hydroxy-2-{6-[2-((4-methylpiperazin-1-yl)methyl)phenyl]-1,3,4,9-tetrahydro-2H-b-carbolin-2-yl}pyrimidine-5-carboxamide]	99.6%	99.4%
CN1CCN(Cc2cccc(-c3ccc4[nH]c5c(c4c3)CN(c3ncc(C(=O)NO)cn3)CC5)c2)CC1 [Example 96, N-hydroxy-2-{8-[3-((4-methylpiperazin-1-yl)methyl)phenyl]-1,3,4,5-tetrahydro-2H-pyrido[4,3-b]indol-2-yl}pyrimidine-5-carboxamide]	100%	98.7%
COc1ccc2[nH]c3c(c2c1)CCN(c1ncc(C(=O)NO)cn1)C3 [Example 10, N-hydroxy-2-(6-methoxy-1,3,4,9-tetrahydro-2H-b-carbolin-2-yl)pyrimidine-5-carboxamide]	99.5%	98.4%
